# Measured values reported in patent publication US20070004735A1, “Method for inhibiting the replication of herpes viruses” (priority 2003, published 2007).
# What was measured:
# [1] = system: HCMV AD169 clone with mutation in UL86 Q1223R; experiment: Susceptibility (IC50) of resistant HCMV AD169 clone Q1223R; type: cell-based, Human cytomegalovirus; conditions: Human betaherpesvirus 5, read-out: IC 50, Q1223R
# Description: (§1) The test compounds are employed as 50 millimolar (mM) solutions in dimethyl sulfoxide (DMSO). Ganciclovir®, Foscarnet® and Cidofovir® are used as reference compounds. After addition of in each case 2 μl of the 50, 5, 0.5 and 0.05 mM DMSO stock solutions to 98 μl portions of cell culture medium in row 2 A-H for duplicate determinations, 1:2 dilutions are carried out with 50 μl portions of medium up to row 11 of the 96-well plate. The wells in rows 1 and 12 each contain 50 μl of medium. 150 μl of a suspension of 1×10^4 cells (human prepuce fibroblasts [NHDF]) are then pipetted into each of the wells (row 1=cell control) and, in rows 2-12, a mixture of HCMV-infected and uninfected NHDF cells (M.O.I.=0.001-0.002), i.e. 1-2 infected cells per 1000 uninfected cells. Row 12 (without substance) serves as virus control. The final test concentrations are 250-0.0005 μM. The plates are incubated at 37° C./5% CO2 for 6 days, i.e. until all the cells are infected in the virus controls (100% cytopathogenic effect [CPE]). The wells are then fixed and stained by adding a mixture of formalin and Giemsa's dye (30 minutes), washed with double-distilled water and dried in a drying oven at 50° C. The plates are then assessed visually using an overhead microscope (plaque multiplier from Technomara).
# (§2) For this purpose, NHDF cells are seeded in tissue culture vessels. 5×10^3 cells per well are seeded in 96-well plates and infected with cell-free HCMV AD169 with an moi of 0.03. The infections are cultivated under substance pressure which corresponds to 10 times the IC50 of the substance. Preferably, 30-100 96-well plates inoculated as described are made up. […] Finally, viral stocks are produced as described above and frozen. Serial ten-fold dilution of the virus-infected cells or of the cell culture supernatant of the virus-infected cells is followed by determination of the titer on 24-well plates of confluent NHDF cells after vital staining with neutral red. Finally, the susceptibility to various substances (IC50 determination) is determined as described above.
# (§3) The HCMVAD169 mutants selected as described above are grown in vitro on human embryonic prepuce fibroblasts (NHDF cells) under substance pressure (10×IC50 HCMVAD169). After infection of the NHDF cells with a multiplicity of infection (M.O.I) of 0.01, the virus-infected cells are harvested 5-10 days later, and the total DNA is isolated from these cells with the aid of established standard methods (e.g. phenol extraction and ethanol precipitation). Qiagen Sequencing Services (Qiagen, Hilden) determined, after amplification of the viral UL86 gene by PCR, the DNA sequence, which was then transcribed into protein sequence. Compared with the initial strain HCMV AD169, the differences shown in table 2 were detectable in the protein sequence of the major capsid protein (UL86) in the resistant viruses. The IC50 values [μM] of various substances on these mutants compared with the initial strain are likewise indicated. (n.d.=not measured). […] Depending on the nature of the substance, certain mutations lead to various extents of resistance.
# HCMV Davis or HCMV AD169 = experiment: HCMV Xenograft Gelfoam model; type: in vivo, immunodeficient mice; conditions: oral treatment over 8 days, infectious virus particles vs placebo-treated control; approximate results
# Description: 3-4-week old female immunodeficient mice (16-18 g), Fox Chase SCID or Fox Chase SCID-NOD or SCID beige, are purchased from commercial breeders (Bomholtgaard, Jackson, USA). The animals are housed under sterile conditions (including bedding and feed) in isolators.
# Collagen sponges 1×1×1 cm in size (Gelfoam®; from Peasel & Lorey, order No. 407534; K. T. Chong et al., Abstracts of 39th Interscience Conference on Antimicrobial Agents and Chemotherapy, 1999, p. 439) are initially wetted with phosphate-buffered saline (PBS), the trapped air bubbles are removed by degassing, and then stored in MEM+10% FCS. 1×10^6 virus-infected NHDF cells (infection with HCMV Davis or HCMV AD169 M.O.I.=0.03) are detached 3 hours after infection and added in a drop of 20 μl of MEM, 10% FCS, to a moist sponge. 12-13 hours later, the infected sponges are incubated with 25 μl of PBS/0.1% BSA/1 mM DTT with 5 ng/μl basic fibroblast growth factor (bFGF). For the transplantation, the immunodeficient mice are anesthetized with Avertin or a ketamine/xylazine/azepromazine mixture, the fur on the back is removed using a shaver, the epidermis is opened 1-2 cm, unstressed and the moist sponges are transplanted under the dorsal skin. The surgical wound is closed with tissue glue. 6 hours after the transplantation, the mice are treated for the first time (one treatment is given on the day of the operation). On subsequent days, oral treatment with the substance is carried out three times a day (7.00 h and 14.00 h and 19.00 h), twice a day (8 h and 18 h) or once a day (14 h) over a period of 8 days. The daily dose is for example 3 or 10 or 30 or 60 or 100 mg/kg of body weight, the volume administered is 10 ml/kg of body weight. The substances are formulated in the form of a 0.5% strength Tylose suspension with 2% DMSO or a 0.5% strength Tylose suspension. […] The number of infectious virus particles after the substance treatment compared with the placebo-treated control group is determined.
# [2] = system: HCMV AD169 clone with mutation in UL86 P1189T; experiment: Susceptibility (IC50) of resistant HCMV AD169 clone P1189T; type: cell-based, Human cytomegalovirus; conditions: Human betaherpesvirus 5, read-out: IC 50, P1189T
# Description: as §1, §2, §3
# [3] = system: HCMV AD169 clone with mutation in UL86 A689T; experiment: Susceptibility (IC50) of resistant HCMV AD169 clone A689T; type: cell-based, Human cytomegalovirus; conditions: Human betaherpesvirus 5, read-out: IC 50, A689T
# Description: as §1, §2, §3
# [4] = system: HCMV AD169 clone with mutation in UL86 D441N; experiment: Susceptibility (IC50) of resistant HCMV AD169 clone D441N; type: cell-based, Human cytomegalovirus; conditions: Human betaherpesvirus 5, read-out: IC 50, D441N
# Description: as §1, §2, §3
# [5] = system: HCMV AD169 clone with mutation in UL86 D563N; experiment: Susceptibility (IC50) of resistant HCMV AD169 clone D563N; type: cell-based, Human cytomegalovirus; conditions: Human betaherpesvirus 5, read-out: IC 50, D563N
# Description: as §1, §2, §3
# wild-type HCMV AD169 = experiment: Susceptibility (IC50) of HCMV AD169 wild-type; type: cell-based, Human cytomegalovirus; conditions: Human betaherpesvirus 5, NHDF cells, read-out: IC 50, Wild-type
# Description: as §1, §2, §3
Structure (SMILES),IC50 [1] [µM],"ED50, antiviral activity in vivo (HCMV Davis or HCMV AD169) [mg/kg/day]",IC50 [2] [µM],IC50 [3] [µM],IC50 [4] [µM],IC50 [5] [µM],IC50 (wild-type HCMV AD169) [µM]
"CCCCC(=O)Nc1ccc(NC(=O)Nc2ccc(F)c(Cl)c2)cc1 [Example 4, N-[4-({[(3-Chloro-4-fluorophenyl)amino]carbonyl}amino)phenyl]pentanamide]",1,70,2,0.5,0.5,1,0.08
"CC1(C)CC(=O)NN=C1c1cc(NC(=O)Nc2cc(F)ccc2F)ccc1O [Example 2, N-(2,5-Difluorophenyl)-N′-[3-(4,4-dimethyl-6-oxo-1,4,5,6-tetrahydro-3-pyridazinyl)-4-hydroxyphenyl]urea]",6,45,> 125,1,1.5,6,0.4
"CC1(C)CC(=O)NN=C1c1cccc(NC(=O)Nc2ccc(F)cc2F)c1 [Example 1, N-(2,4-Difluorophenyl)-N′-[3-(4,4-dimethyl-6-oxo-1,4,5,6-tetrahydro-3-pyridazinyl)phenyl]urea]",20,50,> 125,6,20,> 125,1
